# Source: US20140249165A1, “PURINE DERIVATIVES FOR TREATMENT OF CYSTIC DISEASES” (Genzyme Corporation, priority 2006, published 2014)
# Where two headings read alike, the source gives them in different places.
# Columns and labels:
# MDCK cysts = settings: read-out: IC50 of inhibition of cystic growth; MDCK cysts in 3D collagen I gel, 96 hours incubation, Alamar Blue
# [1] = system: cystic kidneys (cell cycle and transcription proteins); assay: Western blot analysis of cystic kidney protein extracts; assay type: in vivo, mouse; settings: cystic kidneys of treated mice
# Description: Kidneys were homogenized in RIPA buffer (10 mM HEPES, pH 8.0, 100 mM NaCl, 1% Triton X-100, 0.1% SDS, 0.5% sodium deoxycholate, 1 mM DTT, 1 mM EDTA, 1 mM NaF, 1 mM Na3VO4) with Complete™ protease inhibitor cocktail (Roche Diagnostic GmbH, Mannheim, Germany). 30 μg of protein samples were separated in 4-12% SDS/acrylamide gels (Invitrogen, Carlsbad, Calif.). Gels were soaked in transfer buffer (192 mM glycine, 25 mM Tris, 10% methanol, pH 8.3) and transferred to Immobilone-P membranes (Millipore Corporation, Bedford, Mass.). Membranes were rehydrated with methanol and incubated in blocking buffer (5% powdered milk or 3% BSA in PBS) for 30 min. Membranes were incubated overnight at 4° C. with primary antibodies against RNApolII-p, p35/p25 (Abcam, Cambridge, Mass.); Rb-p, cycD1, cycD1-p, ERK2, ERK1/2-p (Cell Signaling, Danvers, Mass.); Rb2, RBBP, cycD3, caspase-2, caspase-3, ApaF1, Bcl-2, Bcl-XL, BAD (BD Biosciences, San Jose, Calif.); CDK7, CDK9, PCNA, GAPDH (US Biologicals, Swampscott, Mass.); cycD2 (BioSource International, Camarillo, Calif.), washed in TBST and incubated with HRP-labeled secondary antibodies as recommended by the manufacturer Immunoreactive proteins were detected using enhanced chemi-luminescence (Amersham Pharmacia Biotech, Little Chalfont Buckinghamshire, England).
# jck kidney = assay: PCNA and TUNEL staining of jck kidney sections; assay type: in vivo, mouse; settings: Roscovitine treated jck kidney
# cpk model of PKD = settings: cpk mice, 100 mg/kg IP daily, day 7 till day 21
# [2] = jck female, 150 mg/kg IP daily, continuous 5 W
# [3] = jck male, 50 mg/kg IP daily, continuous 5 W
# [4] = jck male, 150 mg/kg IP daily, continuous 5 W (Table 2)
# [5] = jck male, 150 mg/kg, daily dosing for 5 weeks (Table 2a)
# [6] = jck male, 150 mg/kg, pulse treatment 5 W (1/1): 1 week on, 1 week off for 5 weeks
# [7] = jck male, 150 mg/kg, pulse treatment 5 W (3/2): 3 weeks on, 2 weeks off
structure (smiles),measurement,setting,value
CC[C@H](CO)Nc1nc(N(C)Cc2ccccc2)c2ncn(C(C)C)c2n1,IC50,MDCK cysts,190 µM
"CC[C@H](CO)Nc1nc(NCc2ccccc2)c2ncn(C(C)C)c2n1 [Roscovitine, 6-benzylamino-2-(R)-[(1-ethyl-2-hydroxy)ethylamino]-9-isopropylpurine]",BUN,jck mouse model of PKD; [2],31.09 ± 6.12 mg/dL
same,Body weight,jck mouse model of PKD; [2],19.79 ± 0.80 g
same,Cystic volume,jck mouse model of PKD; [2],0.74 ± 0.24 % BW
same,BUN,jck mouse model of PKD; [3],51.25 ± 10.19 mg/dL
same,Body weight,jck mouse model of PKD; [3],20.54 ± 1.66 g
same,Cystic volume,jck mouse model of PKD; [3],2.25 ± 0.66 % BW
same,BUN,jck mouse model of PKD; [4],26.78 ± 3.31 mg/dL
same,Body weight,jck mouse model of PKD; [4],21.52 ± 1.78 g
same,Cystic volume,jck mouse model of PKD; [4],0.98 ± 0.15 % BW
same,BUN,jck mouse model of PKD; [5],28.89 ± 7.51 mg/dL
same,Body weight,jck mouse model of PKD; [5],22.33 ± 1.05 g
same,Cystic volume,jck mouse model of PKD; [5],1.10 ± 0.41 % BW
same,BUN,jck mouse model of PKD; [6],43.90 ± 13.08 mg/dL
same,Body weight,jck mouse model of PKD; [6],22.14 ± 1.10 g
same,Cystic volume,jck mouse model of PKD; [6],1.28 ± 0.22 % BW
same,BUN,jck mouse model of PKD; [7],27.60 ± 4.32 mg/dL
same,Body weight,jck mouse model of PKD; [7],22.77 ± 0.39 g
same,Cystic volume,jck mouse model of PKD; [7],1.29 ± 0.40 % BW
same,BUN,"jck mouse model of PKD; jck mice, 50 mg/kg",reduced
same,BUN,"jck mouse model of PKD; jck mice, 150 mg/kg",normalized
same,"Tolerability (weight loss, mortality, toxicity)","jck mouse model of PKD; jck mice, 50 or 150 mg/kg IP","well tolerated with no weight loss, mortality or toxicity"
same,Cystogenesis with intermittent dosing,"jck mouse model of PKD; jck mice, daily for one week followed by one week off, total of 5 weeks",reduction of cystogenesis was detected
same,Anti-cystic effect after drug withdrawal,"jck mouse model of PKD; jck/jck males, 150 mg/kg daily for 3 weeks, followed by 2 weeks without treatment",long lasting anti-cystic effect was detected with normalized levels of BUN
same,Cyclin D2 and D3 expression,[1],downregulated
same,Level of ERK 1/2 activation,[1],decreasing the level of ERK 1/2 activation
same,Levels of Rb associated proteins Rb2 and RBB2,[1],normalized
same,Phosphorylation level of cyclin D1 (Thr-286),[1],normalized phosphorylation level of cyclin D1
same,Rb phosphorylation,[1],dephosphorylation of Rb3
same,RNA pol II phosphorylation,[1]; vs WT controls,reduced levels of RNA pol II phosphorylation
same,PCNA-positive cells,jck kidney; PCNA immunostaining,quantitative reduction in PCNA-positive cells
same,TUNEL-positive cells,jck kidney; TUNEL staining,reduced the number of TUNEL-positive cells
same,BUN,cpk model of PKD,54.58 ± 9.60 mg/dL
same,Body weight,cpk model of PKD,9.75 ± 1.00 g
same,Creatinine,cpk model of PKD,0.29 ± 0.07 mg/dL
same,Cystic volume,cpk model of PKD,14.62 ± 2.16 % BW
